Data published in patent publication US20110034472A1, “Novel Compounds for Treatment of Cancer and Disorders Associated With Angiogenesis Function” (UNIVERSITY OF SOUTHERN CALIFORNIA, priority 2004, published 2011).
Counter-ions that a name gives are not always drawn. Like-named read-outs stand apart in the source and are kept apart here. One block for each molecule: values may come before it.

Legend:
CEM or HEY cells = assay: Cytotoxicity of salicylhydrazides (Table 5); format: cell-based; conditions: Homo sapiens
Text: Human prostate cancer cells (PC3, p53 null, AR−; DU145, p53 mutant, AR−; and LNCaP, p53 wild-type, AR+) and breast cancer cells (MCF-7, overexpressed wild-type p53, ER+; MDA-MB-468, p53 mutant, […]; and MDA-MB-435, p53 mutant, ER−) were obtained from American Type Cell Culture (Manassas, Va.). The human ovarian carcinoma cell line (HEY) naturally resistant to cisplatin (CDDP) was kindly provided by Dr. Dubeau (University of Southern California Norris Cancer Center; Buick et al. (1985) Cancer Res. 45:3668-76 and Hamaguchi et al. (1993) Cancer Res. 53:5225-32). The results with CEM cells were previously described (Neamati et al. (1998) J. Med. Chem. 41:3202-9). Cells were maintained as monolayer cultures in RPMI 1640 supplemented with 10% fetal bovine serum (Gemini-Bioproducts, Woodland, Calif.) and 2 mmol/L L-glutamine at 37° C. in a humidified atmosphere of 5% CO2. To remove the adherent cells from the flask for passaging and counting, cells were washed with PBS without calcium or magnesium, incubated with a small volume of 0.25% trypsin-EDTA solution (Sigma-Aldrich, St. Louis, Mo.) for 5 to 10 minutes, and washed with culture medium and centrifuged. All experiments were done using cells in exponential cell growth.
(§1) Cytotoxicity was assessed by a 3-(4,5-dimethylthiazol-2-yl)-2,5-diphenyltetrazolium bromide assay as previously described (Carmichael et al. (1987) Cancer Res. 47:936-42). Briefly, cells were seeded in 96-well microtiter plates (PC3 and DU145 at 5,000 cells/well and LNCaP at 10,000 cells/well; breast and ovarian cells at 4,000 cells/well) and allowed to attach. Cells were subsequently treated with a continuous exposure to the corresponding drug for 72 hours. A 3-(4,5-dimethylthiazol-2-yl)-2,5-diphenyltetrazolium bromide solution (at a final concentration of 0.5 mg/mL) was added to each well and cells were incubated for 4 hours at 37° C. After removal of the medium, DMSO was added and the absorbance was read at 570 nm. All assays were done in triplicate. The IC50 was then determined for each drug from a plot of log(drug concentration) versus percentage of cell kill.

[1] = test system: MDA-MB-435 breast cancer cells; assay: MTT cytotoxicity assay, MDA-MB-435; format: cell-based, human; conditions: MTT, 72 h, read-out: IC50
Experimental: The sensitivity of a panel of seven human cancer cell lines to SC144 was assessed by MTT-assay. […] The sensitivity towards SC144 was time- and dose-dependent.
as §1
(§2) Cytotoxicity was assessed by a 3-(4,5-dimethylthiazol-2-yl)-2,5-diphenyltetrazolium bromide (MTT) assay as previously described.^9 Briefly, cells were seeded in 96-well microtiter plates and allowed to attach. Cells were subsequently treated with continuous exposure to the corresponding drug for 72 h. An MTT solution (at a final concentration of 0.5 mg/mL) was added to each well, and cells were incubated for 4 h at 37° C. After removal of the medium, DMSO was added and the absorbance was read at 570 nm. All assays were done in triplicate. The IC50 was then determined for each drug from a plot of log (drug concentration) versus percentage of cells killed.

[2] = test system: HCT 116 p53^+/+ colon cancer cells; assay: MTT cytotoxicity assay, HCT 116 p53+/+; format: cell-based, human; conditions: 72 h
Text: (§3) Human breast cancer cells MDA-MB-435 and colon cancer HT29, p53 mutant were purchased from the American Type Cell Culture (Manassas, Va.). The HCT116 P53^+/+ and HCT116 P53^−/− cells were kindly provided by Dr. Bert Vogelstein (Johns Hopkins Medical Institutions, Baltimore, Md.). Human prostate cancer cells, LNCaP, were kindly provided by Richard Cote (University of Southern California Keck School of Medicine). Cells were maintained as monolayer cultures in RPMI 1640 media supplemented with 10% fetal bovine serum (Gemini-Bioproducts, Woodland, Calif.) and 2 mmol/L L-glutamine at 37° C. in a humidified atmosphere of 5% CO2. To remove the adherent cells from the flask for passaging and counting, cells were washed with PBS without calcium or magnesium, incubated with a small volume of 0.25% trypsin-EDTA solution (Sigma-Aldrich, St. Louis, Mo.) for 5-10 min, and washed with culture medium and centrifuged. All experiments were performed using cells at exponential growth stage. Cells were routinely checked for mycoplasma contamination using a PCR-based assay (Stratagene, Cambridge, UK).
as §2

[3] = test system: HCT 116 p53^−/− colon cancer cells; assay: MTT cytotoxicity assay, HCT 116 p53-/-; format: cell-based, human; conditions: 72 h
Text: as §3, §2

HT29 colon cancer cells = assay: MTT cytotoxicity assay, HT 29; format: cell-based, human; conditions: 72 h
Text: as §3, §2

[4] = test system: human cancer cell lines (MDA-MB-435 and three colon cancer cells); assay: MTT assay, panel of breast, colon and prostate cell lines (Example V); format: cell-based
Experimental: All new compounds were tested in four human cancer cell lines, a breast cancer cell, MDA-MB-435, and three colon cancer cells.
as §2

SMILES: O=C(NNc1nc2cc(F)ccc2n2cccc12)c1ccccn1 (as salt: hydrochloride) [SC160′, N′-(7-Fluoropyrrolo[1,2-a]quinoxalin-4-yl)pyridine-2-carbohydrazide hydrochloride]
melting point: > 280 °C (dec.)

melting point: 248 °C (dec.)
SMILES: O=C(NNc1nc2cccc(F)c2n2cccc12)c1cnccn1 (as salt: hydrochloride) [SC161′, N′-(9-Fluoropyrrolo[1,2-a]quinoxalin-4-yl)pyrazine-2-carbohydrazide hydrochloride]

melting point: 280 °C (dec.)
SMILES: O=C(NNc1nc2cc(F)ccc2n2cccc12)c1cnc2ccccc2n1 (as salt: hydrochloride) [SC166′, N′-(7-Fluoropyrrolo[1,2-a]quinoxalin-4-yl)quinoxaline-2-carbohydrazide hydrochloride]

SMILES: O=C(NNC(=O)c1ccccc1O)c1ccccc1O [SC20]
IC50 (CEM or HEY cells): 0.1 ± 0.01 µM

SMILES: COc1ccc(/C=C2/C(=O)N(C(=O)c3ccccc3O)N=C2C)cc1OC [SC25]
IC50 (CEM or HEY cells): 0.15 µM

SMILES: CC1=NN(C(=O)c2ccccc2O)C(=O)/C1=C/c1ccccc1O [SC26]
IC50 (CEM or HEY cells): 0.06 µM

SMILES: CC1=NN(C(=O)c2ccccc2O)C(=O)/C1=C/c1ccc(O)cc1 [SC27]
IC50 (CEM or HEY cells): 0.06 µM

SMILES: O=C(CN1C(=O)C/C(=C\c2ccc(Cl)cc2)C1O)NNC(=O)C1=CCCC=C1O (stereo not shown) [SC28]
IC50 (CEM or HEY cells): 10 ± 2 µM

SMILES: Cc1cccc(C(=O)NNC(O)c2ccc(N3C(=O)c4ccccc4C3=O)cc2)c1 (stereo not shown) [SC29]
IC50 (CEM or HEY cells): 7 ± 2 µM

SMILES: O=C(CNC(=O)c1ccccc1O)c1ccc(N2C(=O)c3ccccc3C2=O)cc1 [SC30]
IC50 (CEM or HEY cells): 6.5 ± 1 µM

SMILES: C=C/C=C(\C=C)N1N=C(C)/C(=C(/NNC(=O)c2ccccc2O)c2ccccc2)C1=O [SC31]
IC50 (CEM or HEY cells): 10 ± 2 µM

SMILES: C=C/C=C(\C=C)N1N=C(C)/C(=C/NNC(=O)c2ccccc2)C1=O [SC32]
IC50 (CEM or HEY cells): 2 ± 1 µM

SMILES: O=C(/C=C/NNC(=O)c1ccccc1O)c1ccccc1 [SC33]
IC50 (CEM or HEY cells): 20 µM

SMILES: O=C(COc1ccccc1Cl)NNC(=O)c1cc2ccccc2cc1O [SC34]
IC50 (CEM or HEY cells): 20 µM

SMILES: COc1ccc2oc(=O)c(C(=O)NNC(=O)c3cccc(C)c3)cc2c1 [SC35]
IC50 (CEM or HEY cells): 12 ± 2 µM

SMILES: COc1ccc(NC(=O)NNC(=O)c2c(O)ccc3ccccc23)cc1 [SC36]
IC50 (CEM or HEY cells): 20 µM

SMILES: C=C1C/C(=C\c2ccc(Cl)cc2)C(=O)N1CC(=O)NNC(=O)c1ccccc1O [SC37]
IC50 (CEM or HEY cells): 15 ± 3 µM

melting point: 210 to 212 °C
SMILES: O=C(NNc1nc2ccccc2n2cccc12)c1ccc[nH]1 [SC141, 1H-Pyrrole-2-carboxylic acid N′-pyrrolo[1,2-a]quinoxalin-4-yl-hydrazide]

melting point: 116 °C
SMILES: Cc1cc2nc(NNC(=O)c3cnccn3)c3cccn3c2cc1C [SC143, Pyrazine-2-carboxylic acid N′-(7,8-dimethyl-pyrrolo[1,2-a]quinoxalin-4-yl)-hydrazide]

melting point: 164.5 °C
SMILES: NCCC(=O)NNc1nc2ccccc2n2cccc12 [SC154, 3-Amino-propionic acid N′-pyrrolo[1,2-a]quinoxalin-4-yl-hydrazide]
IC50 ([1]; Homo sapiens): > 20 µM
IC50 ([2]; Homo sapiens): > 20 µM
IC50 ([3]; Homo sapiens): > 20 µM
IC50 (HT29 colon cancer cells; Homo sapiens): > 20 µM

melting point: 186 °C
SMILES: O=C(NNc1nc2ccccc2n2cccc12)c1cc2ccccc2[nH]1 [SC155, 1H-indole-2-carboxylic acid N′-pyrrolo[1,2-a]quinoxalin-4-yl-hydrazide]
IC50 ([1]; Homo sapiens): > 20 µM
IC50 ([2]; Homo sapiens): > 20 µM
IC50 ([3]; Homo sapiens): > 20 µM
IC50 (HT29 colon cancer cells; Homo sapiens): > 20 µM

melting point: 160 °C
SMILES: O=C(NNc1nc2ccccc2n2cccc12)c1ccc2[nH]ccc2c1 [SC156, 1H-Indole-5-carboxylic acid N′-pyrrolo[1,2-a]quinoxalin-4-yl-hydrazide]
IC50 ([1]; Homo sapiens): > 20 µM
IC50 ([2]; Homo sapiens): > 20 µM
IC50 ([3]; Homo sapiens): > 20 µM
IC50 (HT29 colon cancer cells; Homo sapiens): > 20 µM

melting point: 198.5 °C
SMILES: O=C(NNc1nc2ccccc2n2cccc12)c1ccc2cc[nH]c2c1 [SC157, 1H-Indole-6-carboxylic acid N′-pyrrolo[1,2-a]quinoxalin-4-yl-hydrazide]
IC50 ([1]; Homo sapiens): > 20 µM
IC50 ([2]; Homo sapiens): > 20 µM
IC50 ([3]; Homo sapiens): > 20 µM
IC50 (HT29 colon cancer cells; Homo sapiens): > 20 µM

melting point: 162.5 °C
SMILES: O=C(NNc1nc2ccccc2n2cccc12)c1c[nH]c2ccccc12 [SC158, 1H-Indole-3-carboxylic acid N′-pyrrolo[1,2-a]quinoxalin-4-yl-hydrazide]
IC50 ([1]; Homo sapiens): > 20 µM
IC50 ([2]; Homo sapiens): > 20 µM
IC50 ([3]; Homo sapiens): > 20 µM
IC50 (HT29 colon cancer cells; Homo sapiens): > 20 µM

SMILES: COc1ccccc1C(=O)NNc1nc2ccccc2n2cccc12 [SC159, 2-Methoxy-N′-(H-pyrrolo[1,2-a]quinoxalin-4-yl)benzohydrazide]
IC50 [1]: > 20 µM
IC50 [2]: > 20 µM
IC50 [3]: > 20 µM
IC50 (HT29 colon cancer cells): > 20 µM

SMILES: O=C(NNc1nc2cc(F)ccc2n2cccc12)c1ccccn1 [SC160′, N′-(7-Fluoropyrrolo[1,2-a]quinoxalin-4-yl)pyridine-2-carbohydrazide hydrochloride]
activity in all cell lines [4]: inactive

SMILES: Cl.O=C(NNc1nc2cc(F)ccc2n2cccc12)c1cccnc1 [SC162′, N′-(7-Fluoropyrrolo[1,2-a]quinoxalin-4-yl)nicotinyl hydrazide hydrochloride]
activity in all cell lines [4]: inactive

SMILES: N#Cc1ccc(C(N)CC(=O)NNc2nc3ccccc3n3cccc23)cc1 (stereo not shown) [SC163, 3-Amino-3-(4-cyano-phenyl)-propionic acid N′-pyrrolo[1,2-a]quinoxalin-4-yl-hydrazide]
IC50 ([1]; Homo sapiens): > 20 µM
IC50 ([2]; Homo sapiens): > 20 µM
IC50 ([3]; Homo sapiens): > 20 µM
IC50 (HT29 colon cancer cells; Homo sapiens): > 20 µM

SMILES: COc1ccc(C(N)CC(=O)NNc2nc3ccccc3n3cccc23)cc1 (stereo not shown) [SC164, 3-Amino-3-(4-methoxy-phenyl)-propionic acid N′-pyrrolo[1,2-a]quinoxalin-4-yl-hydrazide]
IC50 ([1]; Homo sapiens): > 20 µM
IC50 ([2]; Homo sapiens): > 20 µM
IC50 ([3]; Homo sapiens): > 20 µM
IC50 (HT29 colon cancer cells; Homo sapiens): > 20 µM

SMILES: NC(CC(=O)NNc1nc2ccccc2n2cccc12)c1ccc(C(F)(F)F)cc1 (stereo not shown) [SC165, 3-Amino-3-(4-trifluoromethyl-phenyl)-propionic acid N′-pyrrolo[1,2-a]quinoxalin-4-yl-hydrazide]
IC50 ([1]; Homo sapiens): > 20 µM
IC50 ([2]; Homo sapiens): > 20 µM
IC50 ([3]; Homo sapiens): > 20 µM
IC50 (HT29 colon cancer cells; Homo sapiens): > 20 µM

SMILES: O=C(NNc1nc2ccccc2n2cccc12)c1ccccc1F [SC166, 2-Fluoro-benzoic acid N′-pyrrolo[1,2-a]quinoxalin-4-yl-hydrazide]
IC50 ([1]; Homo sapiens): 15 ± 1 µM
IC50 ([2]; Homo sapiens): 8 ± 1 µM
IC50 ([3]; Homo sapiens): 11 ± 1 µM
IC50 (HT29 colon cancer cells; Homo sapiens): 13 ± 2 µM

IC50 ([4]; Homo sapiens, MDA-MB-435, representative breast, colon, and prostate cell lines, MTT assay, read-out: IC50 values range): 8 to 15 µM
SMILES: O=C(NNc1nc2cc(F)ccc2n2cccc12)c1cnc2ccccc2n1 [SC166′, N′-(7-Fluoropyrrolo[1,2-a]quinoxalin-4-yl)quinoxaline-2-carbohydrazide hydrochloride]
